Source: the supplement of paper PMC10627819

Columns and labels:
S. aureus DSM 20231 [1] = assay: fitness (endpoint OD595 vs no drug) (fraction); higher = more growth
Outline: (§1)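 Volumes were 30 µl per well, or 55 µl for S. pneumoniae, in 384-well plates inoculated at OD595 0.01. Media were TSB, LB Lennox or CY at 37 °C, and OD595 was read every 30 min for 14 h with first-reading background subtraction. Fitness is the ratio of optical density at stationary-phase entry to the robust mean of no-drug controls. That ratio is capped at 1.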

S. aureus Newman [2] = assay: as above
Outline: as §1

S. aureus DSM 20231 [3] = assay: Bliss interaction score (quartile over a dose matrix) (fitness difference); higher = more antagonism (negative = synergy)
Outline: (§2)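 Each plate was normalised to the robust mean of its own no-drug wells, using OD595 at entry into stationary phase, with values capped at 1. This normalised growth is the fitness value. The Bliss score is the difference between observed and product-expected fitness, with single-drug fitness inferred from the combination data and quartiles taken over technical, biological and donor/recipient replicates.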

S. pneumoniae D39V = assay: as above
Outline: as §2

B. subtilis 168 [4] = assay: as above
Outline: as §2

S. aureus Newman [5] = assay: as above
Outline: as §2

B. subtilis 168 [6] = assay: fitness (endpoint OD595 vs no drug) (fraction); higher = more growth
Outline: as §1
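Throughout, for Bliss interaction score (quartile over a dose matrix): first quartile when negative (synergy) and third quartile when positive (antagonism).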

CC[C@H]1OC(=O)[C@H](C)[C@@H](O[C@H]2C[C@@](C)(OC)[C@@H](O)[C@H](C)O2)[C@H](C)[C@@H](O[C@@H]2O[C@H](C)C[C@H](N(C)C)[C@H]2O)[C@](C)(O)C[C@@H](C)CN(C)[C@H](C)[C@@H](O)[C@]1(C)O [Azithromycin] + Cn1nnc(-c2ccc(-c3ccc(N4C[C@H](CO)OC4=O)cc3F)cn2)n1 [Tedizolid]
fitness
Conditions | first compound 0.125 µg/mL | first compound 0.25 µg/mL | first compound 0.5 µg/mL
S. aureus DSM 20231 [1], partner 0.0625 µg/mL | 0.887 | 0.765 | –
S. aureus DSM 20231 [1], partner 0.125 µg/mL | 0.7 | 0.667 | 0.294
S. aureus DSM 20231 [1], partner 0.25 µg/mL | 0.165 | 0.231 | 0.0821
S. aureus Newman [2], partner 0.0625 µg/mL | 0.867 | 0.818 | –
S. aureus Newman [2], partner 0.125 µg/mL | 0.744 | 0.644 | –

Conditions | Bliss interaction score
B. subtilis 168 [4] | -0.0935
S. aureus DSM 20231 [3] | -0.0615
S. aureus Newman [5] | -0.14
S. pneumoniae D39V | 0.0648

CC[C@H]1OC(=O)[C@H](C)[C@@H](O[C@H]2C[C@@](C)(OC)[C@@H](O)[C@H](C)O2)[C@H](C)[C@@H](O[C@@H]2O[C@H](C)C[C@H](N(C)C)[C@H]2O)[C@](C)(O)C[C@@H](C)CN(C)[C@H](C)[C@@H](O)[C@]1(C)O [Azithromycin] + O=C(N[C@H](CO)[C@H](O)c1ccc([N+](=O)[O-])cc1)C(Cl)Cl [Chloramphenicol]
fitness
Conditions | first compound 0.125 µg/mL | first compound 0.25 µg/mL | first compound 0.5 µg/mL
S. aureus DSM 20231 [1], partner 0.75 µg/mL | 0.703 | 0.657 | 0.29
S. aureus DSM 20231 [1], partner 1.5 µg/mL | 0.544 | 0.366 | 0.139
S. aureus DSM 20231 [1], partner 3 µg/mL | 0.155 | 0.113 | 0.0604
S. aureus Newman [2], partner 0.75 µg/mL | 0.76 | 0.692 | 0.461
S. aureus Newman [2], partner 1.5 µg/mL | 0.515 | 0.527 | 0.253
S. aureus Newman [2], partner 3 µg/mL | – | 0.2 | 0.109

Conditions | Bliss interaction score
B. subtilis 168 [4] | -0.116
S. aureus DSM 20231 [3] | -0.153
S. aureus Newman [5] | -0.101
S. pneumoniae D39V | 0.0336

Cc1onc(-c2ccccc2)c1C(=O)N[C@@H]1C(=O)N2[C@@H]1SC(C)(C)[C@@H]2C(=O)O [Oxacillin] + CCCCCCCCCC(=O)N[C@@H]1[C@H]([C@@H]([C@H](O[C@H]1OC2=C3C=C4C=C2OC5=C(C=C(C=C5)[C@H]([C@H]6C(=O)N[C@@H](C7=C(C(=CC(=C7)O)OC8[C@H]([C@H]([C@@H]([C@H](O8)CO)O)O)O)C9=C(C=CC(=C9)[C@H](C(=O)N6)NC(=O)[C@@H]4NC(=O)[C@@H]1C2=CC(=CC(=C2)OC2=C(C=CC(=C2)[C@H](C(=O)N[C@H](CC2=CC(=C(O3)C=C2)Cl)C(=O)N1)N)O)O)O)C(=O)O)O[C@H]1[C@@H]([C@H]([C@@H]([C@H](O1)CO)O)O)NC(=O)C)Cl)CO)O)O [Teicoplanin]
fitness, main component drawn
Conditions | first compound 0.0156 µg/mL | first compound 0.0312 µg/mL | first compound 0.0625 µg/mL
S. aureus DSM 20231 [1], partner 0.1562 µg/mL | 0.833 | 0.743 | 0.492
S. aureus DSM 20231 [1], partner 0.3125 µg/mL | 0.877 | 0.811 | 0.485
S. aureus DSM 20231 [1], partner 0.625 µg/mL | 0.813 | 0.693 | 0.541
S. aureus Newman [2], partner 0.1562 µg/mL | 0.746 | 0.702 | 0.595
S. aureus Newman [2], partner 0.3125 µg/mL | 0.732 | 0.708 | 0.596
S. aureus Newman [2], partner 0.625 µg/mL | 0.721 | 0.65 | –

fitness, S. aureus Newman [2], one replicate, main component drawn
Conditions | first compound 0.0156 µg/mL | first compound 0.0312 µg/mL | first compound 0.0625 µg/mL
partner 0.62 µg/mL | 0.603 | 0.638 | 0.534
partner 1.24 µg/mL | 0.668 | 0.596 | 0.351
partner 2.48 µg/mL | 0.429 | 0.16 | 0.143

main component drawn
Conditions | Bliss interaction score
B. subtilis 168 [4] | -0.0735
S. aureus DSM 20231 [3] | 0.062
S. aureus Newman [5] | -0.0741
S. pneumoniae D39V | -0.0582

Cc1onc(-c2ccccc2)c1C(=O)N[C@@H]1C(=O)N2[C@@H]1SC(C)(C)[C@@H]2C(=O)O [Oxacillin] + COc1cc(Cc2cnc(N)nc2N)cc(OC)c1OC [Trimethoprim]
one replicate
Conditions | fitness
B. subtilis 168 [6], first compound 0.002 µg/mL, partner 1 µg/mL | 0.498
B. subtilis 168 [6], first compound 0.002 µg/mL, partner 2 µg/mL | 0.37
B. subtilis 168 [6], first compound 0.004 µg/mL, partner 1 µg/mL | 0.418
B. subtilis 168 [6], first compound 0.004 µg/mL, partner 2 µg/mL | 0.257
B. subtilis 168 [6], first compound 0.0078 µg/mL, partner 0.1 µg/mL | 0.898
B. subtilis 168 [6], first compound 0.0078 µg/mL, partner 0.125 µg/mL | 0.385
B. subtilis 168 [6], first compound 0.0078 µg/mL, partner 0.2 µg/mL | 0.804
B. subtilis 168 [6], first compound 0.0078 µg/mL, partner 0.4 µg/mL | 0.578
B. subtilis 168 [6], first compound 0.008 µg/mL, partner 1 µg/mL | 0.351
B. subtilis 168 [6], first compound 0.008 µg/mL, partner 2 µg/mL | 0.304
B. subtilis 168 [6], first compound 0.0155 µg/mL, partner 0.1 µg/mL | 0.839
B. subtilis 168 [6], first compound 0.0155 µg/mL, partner 0.125 µg/mL | 0.363
B. subtilis 168 [6], first compound 0.0155 µg/mL, partner 0.2 µg/mL | 0.802
B. subtilis 168 [6], first compound 0.0155 µg/mL, partner 0.4 µg/mL | 0.599
B. subtilis 168 [6], first compound 0.031 µg/mL, partner 0.1 µg/mL | 0.882
B. subtilis 168 [6], first compound 0.031 µg/mL, partner 0.125 µg/mL | 0.352
B. subtilis 168 [6], first compound 0.031 µg/mL, partner 0.2 µg/mL | 0.763
B. subtilis 168 [6], first compound 0.031 µg/mL, partner 0.4 µg/mL | 0.536
B. subtilis 168 [6], first compound 0.075 µg/mL, partner 0.125 µg/mL | 0.0694
B. subtilis 168 [6], first compound 0.075 µg/mL, partner 0.25 µg/mL | 0.0331
B. subtilis 168 [6], first compound 0.075 µg/mL, partner 0.5 µg/mL | 0.026
B. subtilis 168 [6], first compound 0.15 µg/mL, partner 0.125 µg/mL | 0.0313
B. subtilis 168 [6], first compound 0.15 µg/mL, partner 0.25 µg/mL | 0.0424
B. subtilis 168 [6], first compound 0.15 µg/mL, partner 0.5 µg/mL | 0.0705
B. subtilis 168 [6], first compound 0.3 µg/mL, partner 0.125 µg/mL | 0.0436
B. subtilis 168 [6], first compound 0.3 µg/mL, partner 0.25 µg/mL | 0.0503
B. subtilis 168 [6], first compound 0.3 µg/mL, partner 0.5 µg/mL | 0.0489
S. aureus DSM 20231 [1], first compound 0.0156 µg/mL, partner 0.125 µg/mL | 0.558
S. aureus DSM 20231 [1], first compound 0.0312 µg/mL, partner 0.125 µg/mL | 0.523
S. aureus DSM 20231 [1], first compound 0.0625 µg/mL, partner 0.125 µg/mL | 0.477

fitness
Conditions | partner 0.25 µg/mL | partner 0.5 µg/mL | partner 1 µg/mL
B. subtilis 168 [6], first compound 0.002 µg/mL | – | 0.46 | –
B. subtilis 168 [6], first compound 0.004 µg/mL | – | 0.475 | –
B. subtilis 168 [6], first compound 0.008 µg/mL | – | 0.467 | –
B. subtilis 168 [6], first compound 0.031 µg/mL | – | 0.384 | –
S. aureus DSM 20231 [1], first compound 0.0156 µg/mL | 0.561 | 0.129 | 0.0621
S. aureus DSM 20231 [1], first compound 0.0312 µg/mL | 0.559 | 0.147 | 0.0523
S. aureus DSM 20231 [1], first compound 0.0625 µg/mL | 0.438 | 0.0674 | 0.0399

Conditions | Bliss interaction score
B. subtilis 168 [4] | 0.0589
S. aureus DSM 20231 [3] | 0.0401
S. aureus Newman [5] | -0.0935
S. pneumoniae D39V | 0.164
